Experimental data taken from PMC10850145, “Hormonal steroids induce multidrug resistance and stress response genes in Neisseria gonorrhoeae by binding to MtrR” (Nature Communications, 2024).
Several values for one entry are separate records, joined by “and”; a condition that tells them apart may be missing. Equal entries are not always repeated. Where two headings read alike, the source gives them in different places.

Test system: mtrC-lacZ expression
Assay type: cell-based, Neisseria gonorrhoeae
Conditions: for Miller units, single well / Miller units, Mean: upper 4-row block; for Miller units, single well: individual replicate; for Miller units, Mean: mean of 4 wells; for β-galactosidase activity, single replicate: ΔmtrR + mtrR R176E in trans; for β-galactosidase activity, individual replicate / β-galactosidase activity, Miller units (single replicate): mtrR WT in cis; for β-galactosidase activity, individual replicate: single replicate values, second (right) block
[1] = 6.25 µM hormone, plate columns 1-6 (WT)
[2] = 6.25 µM hormone, plate columns 7-12 (second strain, not WT)
[3] = 12.5 µM hormone, plate columns 1-6 (WT)
[4] = 12.5 µM hormone, plate columns 7-12 (second strain, not WT)
[5] = 25 µM hormone, plate columns 7-12 (second strain, not WT)
[6] = 50 µM hormone, plate columns 1-6 (WT)
[7] = 50 µM hormone, plate columns 7-12 (second strain, not WT)
[8] = mtrC-lacZ, ΔmtrR + mtrR D171A in trans, 6.25 µM hormone, single replicate
[9] = mtrC-lacZ, ΔmtrR + mtrR D171A in trans, 12.5 µM hormone, single replicate
[10] = mtrC-lacZ, ΔmtrR + mtrR D171A in trans, 25 µM hormone, single replicate
[11] = mtrC-lacZ, ΔmtrR + mtrR D171A in trans, 50 µM hormone, single replicate
[12] = mtrC-lacZ, ΔmtrR + mtrR WT in trans, 6.25 µM hormone, single replicate
[13] = mtrC-lacZ, ΔmtrR + mtrR WT in trans, 12.5 µM hormone, single replicate
[14] = mtrC-lacZ, ΔmtrR + mtrR WT in trans, 25 µM hormone, single replicate
[15] = mtrC-lacZ, ΔmtrR + mtrR WT in trans, 50 µM hormone, single replicate

SMILES: CC(=O)[C@H]1CC[C@H]2[C@@H]3CCC4=CC(=O)CC[C@]4(C)[C@H]3CC[C@]12C [Progesterone, progesterone]
- Miller units (6.25 µM hormone, plate columns 1-6 (WT), plate rows 1-4 (mtrC), single well): 82 Miller units and 48 Miller units and 89 Miller units
- Miller units, single well [1]: 82 Miller units and 48 Miller units and 89 Miller units and 47 Miller units
- Miller units, Mean [1]: 66 Miller units
- Miller units (6.25 µM hormone, plate columns 7-12 (second strain not given), plate rows 1-4 (mtrC), single well): 315 Miller units and 180 Miller units and 172 Miller units
- Miller units, single well [2]: 315 Miller units and 180 Miller units and 172 Miller units and 146 Miller units
- Miller units, Mean [2]: 203 Miller units
- Miller units (12.5 µM hormone, plate columns 1-6 (WT), plate rows 1-4 (mtrC), single well): 112 Miller units and 91 Miller units and 70 Miller units
- Miller units, single well [3]: 112 Miller units and 91 Miller units and 70 Miller units and 43 Miller units
- Miller units, Mean [3]: 79 Miller units
- Miller units (12.5 µM hormone, plate columns 7-12 (second strain not given), plate rows 1-4 (mtrC), single well): 228 Miller units and 168 Miller units and 142 Miller units
- Miller units, single well [4]: 228 Miller units and 168 Miller units and 142 Miller units and 163 Miller units
- Miller units, Mean [4]: 175 Miller units
- Miller units (25 µM hormone, plate columns 1-6 (WT), plate rows 1-4 (mtrC), single well): 152 Miller units and 193 Miller units
- Miller units, single well (25 µM hormone, plate columns 1-6 (WT)): 152 Miller units and 193 Miller units and 125 Miller units
- Miller units (25 µM hormone, plate columns 7-12 (second strain not given), plate rows 1-4 (mtrC), single well): 253 Miller units and 170 Miller units and 160 Miller units
- Miller units, single well [5]: 253 Miller units and 170 Miller units and 160 Miller units and 118 Miller units
- Miller units, Mean [5]: 175 Miller units
- Miller units (50 µM hormone, plate columns 1-6 (WT), plate rows 1-4 (mtrC), single well): 185 Miller units and 157 Miller units and 126 Miller units
- Miller units, single well [6]: 185 Miller units and 157 Miller units and 126 Miller units and 75 Miller units
- Miller units, Mean [6]: 136 Miller units
- Miller units (50 µM hormone, plate columns 7-12 (second strain not given), plate rows 1-4 (mtrC), single well): 186 Miller units and 138 Miller units and 118 Miller units
- Miller units, single well [7]: 186 Miller units and 138 Miller units and 118 Miller units and 96 Miller units
- Miller units, Mean [7]: 134 Miller units
- induction of mtrC expression (complemented (MtrR+) strains, increasing hormone): could be induced
- induction of mtrC expression (loss of MtrR or MtrR-D171A strain): abrogated
- Miller units [8]: 150 Miller units and 142 Miller units
- β-galactosidase activity (Miller units) [8]: 147 Miller units and 144 Miller units and 150 Miller units and 142 Miller units
- Miller units [9]: 139 Miller units and 154 Miller units
- β-galactosidase activity (Miller units) [9]: 146 Miller units and 130 Miller units and 139 Miller units and 154 Miller units
- Miller units [10]: 164 Miller units
- β-galactosidase activity (Miller units) [10]: 161 Miller units and 184 Miller units and 164 Miller units
- Miller units [11]: 111 Miller units and 106 Miller units
- β-galactosidase activity (Miller units) [11]: 114 Miller units and 91 Miller units and 111 Miller units and 106 Miller units
- Miller units [12]: 71 Miller units and 75 Miller units and 104 Miller units and 85 Miller units
- β-galactosidase activity (Miller units) [12]: 71 Miller units and 75 Miller units and 104 Miller units and 85 Miller units
- Miller units [13]: 90 Miller units and 80 Miller units and 98 Miller units and 88 Miller units
- β-galactosidase activity (Miller units) [13]: 90 Miller units and 80 Miller units and 98 Miller units and 88 Miller units
- Miller units [14]: 120 Miller units and 101 Miller units and 124 Miller units and 107 Miller units
- β-galactosidase activity (Miller units) [14]: 120 Miller units and 101 Miller units and 124 Miller units and 107 Miller units
- Miller units [15]: 125 Miller units and 123 Miller units and 130 Miller units and 139 Miller units
- β-galactosidase activity (Miller units) [15]: 125 Miller units and 123 Miller units and 130 Miller units and 139 Miller units
- β-galactosidase activity (Miller units) (mtrC-lacZ, ΔmtrR strain, 6.25 µM hormone, single replicate): 239 Miller units
- β-galactosidase activity (Miller units) (mtrC-lacZ, ΔmtrR strain, 12.5 µM hormone, single replicate): 205 Miller units
- β-galactosidase activity (Miller units) (mtrC-lacZ, ΔmtrR strain, 25 µM hormone, single replicate): 223 Miller units
- β-galactosidase activity (Miller units) (mtrC-lacZ, ΔmtrR strain, 50 µM hormone, single replicate): 197 Miller units
- β-galactosidase activity, single replicate (mtrCDE block (c1-c37), 6.25 µM): 221 Miller units and 281 Miller units and 181 Miller units and 184 Miller units
- β-galactosidase activity, single replicate (mtrCDE block (c1-c37), 12.5 µM): 215 Miller units and 235 Miller units and 172 Miller units and 208 Miller units
- β-galactosidase activity, single replicate (mtrCDE block (c1-c37), 25 µM): 255 Miller units and 287 Miller units and 177 Miller units and 185 Miller units
- β-galactosidase activity, single replicate (mtrCDE block (c1-c37), 50 µM): 296 Miller units and 219 Miller units and 227 Miller units and 184 Miller units
- β-galactosidase activity, individual replicate (6.25 µM hormone): 41 Miller units and 35 Miller units
- β-galactosidase activity, Miller units (single replicate) (6.25 µM, first data set (c15-c36)): 115 Miller units and 113 Miller units and 101 Miller units and 103 Miller units
- β-galactosidase activity, Miller units (single replicate) (6.25 µM, second data set (c53-c74)): 37 Miller units and 29 Miller units
- β-galactosidase activity, individual replicate (12.5 µM hormone): 61 Miller units and 54 Miller units
- β-galactosidase activity, Miller units (single replicate) (12.5 µM, first data set (c15-c36)): 153 Miller units and 144 Miller units and 132 Miller units
- β-galactosidase activity, Miller units (single replicate) (12.5 µM, second data set (c53-c74)): 41 Miller units and 34 Miller units
- β-galactosidase activity, individual replicate (25 µM hormone): 90 Miller units and 65 Miller units
- β-galactosidase activity, Miller units (single replicate) (25 µM, first data set (c15-c36)): 256 Miller units and 186 Miller units and 175 Miller units and 160 Miller units
- β-galactosidase activity, Miller units (single replicate) (25 µM, second data set (c53-c74)): 66 Miller units and 58 Miller units
- β-galactosidase activity, individual replicate (50 µM hormone): 111 Miller units and 114 Miller units
- β-galactosidase activity, Miller units (single replicate) (50 µM, first data set (c15-c36)): 228 Miller units and 242 Miller units and 200 Miller units and 220 Miller units
- β-galactosidase activity, Miller units (single replicate) (50 µM, second data set (c53-c74)): 91 Miller units and 73 Miller units
- β-galactosidase activity, single replicate (second block of sheet (c39-c76), 6.25 µM): 130 Miller units and 89 Miller units and 76 Miller units and 71 Miller units
- β-galactosidase activity, single replicate (second block of sheet (c39-c76), 12.5 µM): 125 Miller units and 104 Miller units and 71 Miller units and 67 Miller units
- β-galactosidase activity, single replicate (second block of sheet (c39-c76), 25 µM): 151 Miller units and 130 Miller units and 84 Miller units and 80 Miller units
- β-galactosidase activity, single replicate (second block of sheet (c39-c76), 50 µM): 130 Miller units and 108 Miller units and 88 Miller units and 66 Miller units
